Assay results as given in paper PMC10126473 (Frontiers in Pharmacology, 2023).

Legend:
[1] = PBPK model (GastroPlus): simulation and model parameters incl. permeability surface product and scaled metabolic kinetics, human; settings: for Liver Vmax: in vivo (scaled)
[2] = Kinetic aqueous solubility (Pion µSOL assay); settings: pH 7.4
Procedure: Samples were incubated at room temperature for 6 h and vacuum-filtered using Tecan Te-Vac to remove any precipitates. The concentration of the compound in the filtrate was measured via UV absorbance (λ: 250–498 nm). […] All compounds were tested in duplicates. The kinetic solubility (µg/mL) of compounds was calculated using the µSOL Evolution software.

[3] = Metabolic stability and biotransformation in liver microsomes; settings: for Liver Vmax: in vitro
Procedure: (§1) The incubation was carried out at 37°C for 15, 30, and 60 min. The reaction in plasma or liver microsomes was quenched by adding 200 μL of cold acetonitrile (containing 100 ng/mL tolbutamide as internal standard).
(§2) The mc was the microsome concentration used in the incubation (0.5 mg/mL). The substrate disappearance half-life (t1/2) was estimated by regression analysis of the semi-logarithmic (ln Conc vs. time) plots. […] The Vmax, in vitro,app, PDN-total and Km for PDN depletion in liver microsomes were estimated by the Michaelis-Menten model using GraphPad Prism version 8.

[4] = Metabolic stability in plasma; settings: for Plasma k: human, in vitro
Procedure: The incubation was carried out at 37°C for 15, 30, and 60 min. The reaction in plasma or liver microsomes was quenched by adding 200 μL of cold acetonitrile (containing 100 ng/mL tolbutamide as internal standard). After a 20 min centrifugation at 3000 rpm, 4°C, the supernatant was transferred to an analysis plate and analyzed by UPLC-MS/MS as described in Section 2.4.2.
The substrate disappearance half-life (t1/2) was estimated by regression analysis of the semi-logarithmic (ln Conc vs. time) plots.

[5] = Metabolic stability and biotransformation in liver microsomes; settings: for Liver Vmax: in vitro; remark: listed apart in the source
Procedure: as §1, §2

[6] = PBPK model (GastroPlus): simulation and model parameters incl. permeability surface product and scaled metabolic kinetics, hamster; settings: for Liver Vmax / Plasma k: in vivo (scaled)
Procedure: CL in vitro,app expressed as mL/min/mg microsomes were scaled to the predicted CLintrinsic using scaling factor (SF), microsome level and liver weight as indicated below: CLintrinsic=CLin vitro,app×SF×liver weight×microsome level per gram liver
All modeling and simulation were carried out using GastroPlus version 9.5 (Simulations Plus Inc., CA). Physiochemical parameters including blood-to-plasma ratio (Rbp), pKa, and logP were predicted by ADMET predictor (Simulations Plus Inc., CA). Physiologies of all species, including organ weights, volumes, tissue compositions, and blood perfusion rates, were generated by the program’s internal module. Tissue intracellular unbound fractions were generated by GastroPlus based on predicted or experimentally determined physiochemical and chemical-biological parameters including pKa, logP, plasma unbound fractions (Fup), Rbp, solubility, and PAMPA permeability. The PBPK model structure is illustrated in Figure 2 and its parameters are summarized in Supplementary Tables S3–6. The default absorption and dissolution model was applied and effective intestine permeability was predicted by a built-in correlation from the experimental PAMPA permeability result. Parameters including partition coefficients in tissue (Kp), CLintrinsic, and permeability surface area product (PStc) were estimated by fitting the model to experimental data using the optimization module in GastroPlus with objective function weights at 1/(y + ŷ)^2, where y is the observed value and ŷ is the predicted value.
Experimental measurements of hamster plasma pharmacokinetics and lung concentrations were used in the model validation.

[7] = conversion to Nc, in vivo, predicted from in vitro liver parameters

O=C(Nc1ccc([N+](=O)[O-])cc1Cl)c1cc(Cl)ccc1OC(=O)N1CCNCC1 [PDN]
Liver Vmax ([1]; conversion to Nc): 0.0004 mg/s/mg microsomes
Gut Vmax [1, 7]: 0.00001 mg/s/mg microsomes
Liver Vmax ([1]; conversion to Others): 0.0164 mg/s/mg microsomes
increase in solubility compared with Nc [2]: 40 fold
solubility kinetic at 6 h [2]: > 43.5 µg/mL
Liver Vmax ([3]; conversion to Nc, mouse): 0.00095 mg/s/mg microsomes
Gut Vmax ([3]; conversion to Nc, mouse, in vitro (in vitro liver parameters)): 0.00095 mg/s/mg microsomes
Liver Vmax ([3]; conversion to Others, mouse): 0.1484 mg/s/mg microsomes
Vmax in vitro,app, PDN-total ([3]; mouse liver microsomes): 1.327 ± 0.106 nmol/min/mg
Km ([3]; mouse, pH 7.4): 20.2 ± 3.31 µM
Plasma k ([4]; conversion to Nc): 0.00026 s⁻¹
Plasma k ([4]; conversion to Others): 0.0022 s⁻¹
kin vitro,app, PDN-total (total depletion of PDN) ([4]; human plasma, 37°C): 0.0025 ± 0.0013 min⁻¹
Liver Vmax ([5]; conversion to Nc, hamster): 0.0085 mg/s/mg microsomes
Gut Vmax ([5]; conversion to Nc, hamster, in vitro (in vitro liver parameters)): 0.0085 mg/s/mg microsomes
Liver Vmax ([5]; conversion to Others, hamster): 0.1059 mg/s/mg microsomes
Vmax in vitro,app, PDN-total ([5]; hamster liver microsomes): 1.238 ± 0.133 nmol/min/mg
Km ([5]; hamster, pH 7.4): 10.8 ± 3.04 µM
Liver Vmax ([6]; conversion to Nc): 0.0130 mg/s/mg microsomes
Plasma k ([6]; conversion to Nc): 0.0052 s⁻¹
Gut Vmax [6, 7]: 0.0004 mg/s/mg microsomes
Liver Vmax ([6]; conversion to Others): 0.1649 mg/s/mg microsomes
Plasma k ([6]; conversion to Others): 0.0189 s⁻¹
